For the experiment, the system named is Plasmodium falciparum 3D7. The experiment can be described thus: pEC50, asexual blood-stage growth inhibition. To be noted: 72 h. As to the method:
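Held-out test set measured in the Guy lab in 2014 with the same procedure as the primary St. Jude screen. P. falciparum 3D7 blood-stage culture (2% hematocrit, 1% parasitemia) was treated with compound for 72 h at 37 °C, and growth was read by SYBR Green I fluorescence. EC50 came from a four-parameter Hill fit over a 10-point dilution series […].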

Experimental findings from the supplement of paper PMC5580409 are described below.

As a reminder, the pEC50 is the EC50 on a negative log10 scale, so that one unit is a factor of ten. A higher pEC50 goes with a low EC50. Molecule `Cc1ccc2c(c1)c1c3n2CCCN=C3CCC1` showed a pEC50 of less than 4.82.

Molecule `Cc1cccc(NCC(O)Cn2c3ccc(Br)cc3c3cc(Br)ccc32)c1C` (stereo not given) gave a pEC50 of 5.21. In the case of `C=CCn1c(=N)n(CC(O)c2ccc(Br)cc2)c2ccccc21` (stereo not given) it was 5.62; in that of `CC(C)c1ccc(/C=C/C(=O)Nc2cccc(F)c2)cc1`, less than 4.82. `COc1cc(OC)c([N+](=O)[O-])cc1/C=N/NC(=O)C1CC1(c1ccccc1)c1ccccc1` (stereo not given) showed a pEC50 of less than 4.82.

For `COc1ccc(Oc2c(C(F)(F)F)oc3c(CN4CCCC(C)C4)c(O)ccc3c2=O)cc1` (stereo not given), the pEC50 was less than 4.82.

On to `Cc1cccc(C2(c3cccc(C)c3)CC2C(=O)Nc2cc([N+](=O)[O-])ccc2O)c1` (stereo not given), for which the pEC50 came to 5.27. In the case of `O=C(Cc1ccc(Br)cc1)Nc1cccc(-c2nc3ccccc3[nH]2)c1` it was less than 4.82; in that of `CCCCN(CCCC)CC(O)COc1ccccc1C` (stereo not given), 6.06. The result for `CC1=C(C(=O)OCCOc2ccccc2)C(c2cccc(O)c2)C2=C(CC(c3ccc(Cl)cc3)CC2=O)N1` (stereo not given) reads less than 4.82; that for `CC[n+]1c(/C=C/c2cc(C)n(-c3ccccc3)c2C)sc2ccccc21`, less than 4.82; that for `CCc1ccc(NC(=O)/C=C/c2ccccc2Cl)cc1`, 6.69. The result for `COc1ccccc1-c1c(C(F)(F)F)oc2c(CN(C)C3CCCCC3)c(O)ccc2c1=O` reads less than 4.82; that for `CCN1/C(=C/C=C/C=C/c2sc3ccccc3[n+]2CC(=O)O)Sc2ccccc21`, less than 4.82; that for `CCOC(=O)c1c(C)oc2ccc(OC)cc12`, less than 4.82. Molecule `O=c1c2ccccc2nc(SCc2cn3ccccc3n2)n1Cc1ccco1` registered a pEC50 of less than 4.82.

Take `COc1ccccc1-c1cc(C(=O)N2CCC(Cc3ccccc3)CC2)c2ccccc2n1`: the pEC50 was less than 4.82.

Regarding `CCOc1ccc(-c2nc3cc(C)ccc3[nH]2)cc1`, the pEC50 was determined as 5.12. The result for `CC(CN1CCCCC1)NC(=O)c1cc(-c2cccnc2)nc2ccc(Cl)cc12` (stereo not given) reads 5.7; that for `CCOC(=O)c1cnc2c(Cl)cccc2c1Nc1cccc(C(C)=O)c1`, 5.35; that for `O=c1c(Oc2ccccc2)c(C(F)(F)F)oc2c(CN3CCCCC3)c(O)ccc12`, less than 4.82. The molecule `Cc1cccc(NC(=O)CSc2nc(C)c(C)n2-c2ccccc2)c1C` displayed a pEC50 of less than 4.82. The result for `CC(=O)Nc1ccc(-c2nc3cc(-c4nc5cc(NC(C)=O)ccc5[nH]4)ccc3[nH]2)cc1` reads 6.5; that for `CCC(C)c1ccc(NC(=O)/C=C/c2cccc(Cl)c2)cc1` (stereo not given), less than 4.82. In the case of `Cc1cc(S(=O)(=O)N2CCC(CO)(Cc3cccc(C(F)(F)F)c3)CC2)c(C)cc1Cl`, the pEC50 was less than 4.82. In the case of `CC(=O)Nc1cccc(Nc2nc(N3CCCCC3)nc(N(c3ccccc3)c3ccccc3)n2)c1` it was 5.61. In the case of `Cc1ccc(C)c(OCC(O)CNC2CCCC2)c1` (stereo not given) it was less than 4.82; in that of `CCOC(=O)C1=C(C)NC2=C(C(=O)CC(c3ccccc3)C2)C1c1cc(Cl)c(O)c(OC)c1` (stereo not given), less than 4.82. In the case of `CCn1c2ccccc2c2cc(CNC3CCCCC3)ccc21` it was less than 4.82. As to `OC(CNC1CC1)Cn1c2ccccc2c2ccccc21` (stereo not given), the pEC50 was less than 4.82.

Turning to `COc1cccc(CNCC(O)c2ccccc2)c1` (stereo not given), the pEC50 is less than 4.82. The result for `OC(CNc1ccccc1)Cn1c2ccccc2c2ccccc21` (stereo not given) reads less than 4.82; that for `COc1cc(C2CC(=O)NC3=C2C(=O)CC(c2ccc(OC)c(OC)c2)C3)c(OC)cc1Br` (stereo not given), 6.86. In the case of `O=C(Cc1ccccc1)Nc1ccc(-c2nc3cc(NC(=O)Cc4ccccc4)ccc3[nH]2)cc1` it was less than 4.82. The result for `CCOc1cc(C2C(C(=O)OCCOc3ccccc3)=C(C)NC3=C2C(=O)CC(c2ccc(Cl)cc2)C3)cc(Cl)c1O` (stereo not given) reads less than 4.82; that for `CCOC(=O)c1ccc(NC(=O)CC2C(=O)N(c3ccc(OC)cc3)C(=O)N2CCC(C)C)cc1` (stereo not given), less than 4.82; that for `Cc1cccc(Oc2c(C(F)(F)F)oc3c(CN4CCCC4)c(O)ccc3c2=O)c1`, less than 4.82. Consider `N=c1n(CCN2CCCCC2)c2ccccc2n1CC(O)c1cccc2ccccc12` (stereo not given), for which the pEC50 was determined as 5.49. The result for `CCCCn1c(=N)n(CC(O)c2ccc(OC)cc2)c2ccccc21` (stereo not given) reads less than 4.82; that for `Oc1nc(/C=C/c2cccc3ccccc23)nc2ccccc12`, less than 4.82. The result for `CCN(CC)CCN1C(=O)c2ccccc2NC1c1ccc(Br)cc1` (stereo not given) reads 5.74; that for `CN(C)c1ccc(NC(=O)/C=C/c2cccc(Cl)c2)cc1`, 6.39. The result for `COc1cc(C2CC(=O)NC3=C2C(=O)CC(c2ccc(C)cc2)C3)ccc1O` (stereo not given) reads less than 4.82; that for `COc1cc(CNn2nnnc2N)cc(Cl)c1OC`, less than 4.82; that for `Nc1ccc(-c2nc3cc(-c4nc5cc(N)ccc5[nH]4)ccc3[nH]2)cc1`, 5.64. For the molecule `Cc1ccc(NCC(O)Cn2c3ccc(Cl)cc3c3cc(Cl)ccc32)cc1` (stereo not given), the pEC50 turned out to be 5.28. Consider `Cc1c(Cl)ccc2c(C(=O)NCCN3CCOCC3)cc(-c3ccncc3)nc12`, for which the negative logarithm of the EC50 (pEC50) is less than 4.82. The result for `CCCCn1c(=N)n(CC(=O)c2ccc(Br)cc2)c2ccccc21` reads less than 4.82. The result for `Cc1ccc(OCC(O)CNC2CCCCC2)cc1` (stereo not given) reads 5.83; that for `COc1ccc(C2CC(=O)NC3=C2C(=O)CC(c2ccc(OC)c(OC)c2)C3)c(OC)c1` (stereo not given), less than 4.82.

Molecule `CC(C)(C)C(=O)N1CCN(C(c2ccccc2)c2ccccc2)CC1` displayed a pEC50 of less than 4.82. `Cc1cc(C)c(C)c(Oc2cc(NC(=O)c3c(I)cnn3C)cc([N+](=O)[O-])c2)c1` displayed a negative-log EC50 (pEC50) of 6.28. On to `CC(C)c1ccc(/C=C/C(=O)Nc2cccc(Cl)c2)cc1`, for which the pEC50 is less than 4.82. In the case of `CCOc1ccccc1Oc1c(C(F)(F)F)oc2c(CN3CCCCCC3)c(O)ccc2c1=O` it was less than 4.82; in that of `COc1ccccc1-c1c(C(F)(F)F)oc2c(CN3CCCC3)c(O)ccc2c1=O`, less than 4.82. As to `CCOc1ccc(NC(=O)/C=C/c2ccccc2Cl)cc1`, the pEC50 was 6.34.

In turn, `CCN(CC)c1nc(Nc2cccc(Br)c2)nc(Nc2cc(C)ccc2C)n1` came in with a pEC50 of less than 4.82. Regarding `O=S(=O)(/C=C/c1ccccc1)N1CCC(CO)(Cc2cccc(C(F)(F)F)c2)CC1`, the pEC50 is less than 4.82.

For the molecule `Oc1ccc(Cl)cc1CN1CCCC(N2CCCC2)C1` (stereo not given), the pEC50 was less than 4.82. The result for `COc1ccc(C2CC(=O)C3=C(C2)NC(=O)CC3c2ccc(Cl)cc2Cl)cc1OC` (stereo not given) reads 5.7; that for `CCOC(=O)C1=C(C)NC2=C(C(=O)CC(c3ccc(Cl)cc3)C2)C1c1cc(OC)c(OC)c(OC)c1` (stereo not given), less than 4.82; that for `COCCOC(=O)C1=C(C)NC2=C(C(=O)CC(c3ccc(OC)cc3)C2)C1c1ccc(Cl)cc1` (stereo not given), 6.17. In the case of `Cc1cccc(C2(c3cccc(C)c3)CC2C(=O)Nc2ccc([N+](=O)[O-])cc2O)c1` (stereo not given) it was 5.36. In the case of `O=C(NCC1CCCCC1)c1cn(C2CC2)cc(C(=O)NC2CCN(Cc3ccccc3)CC2)c1=O` it was less than 4.82; in that of `N=c1n(CCN2CCCCC2)c2ccccc2n1CC(O)COc1ccc(Cl)cc1Cl` (stereo not given), 5.53. `C=CCn1c(=N)n(CC(O)c2cccc(Br)c2)c2ccccc21` (stereo not given) came in with a pEC50 of 5.66.

Turning to `COc1cc(OC)cc(C(=O)Nc2ccc(-c3nc4cc(C)ccc4[nH]3)cc2)c1`, the pEC50 amounted to 5.29. In the case of `CCn1c(SCC(=O)Nc2cc(C(F)(F)F)ccc2Cl)nnc1-c1ccccc1Cl` it was less than 4.82. The result for `O=C(Nc1ccccc1)c1ccccc1OCC(O)CN(Cc1ccccc1)Cc1ccccc1` (stereo not given) reads 6.31; that for `Cc1ccc(Nc2cc(N3CCN(C(=O)c4ccc(C)cc4)CC3)ncn2)cc1`, 6.13. The result for `Cc1ccc(OCC(O)CNC2CCCC2)cc1C` (stereo not given) reads 5.85; that for `Cc1ccc(C)c(NCC(O)Cn2c3ccccc3c3ccccc32)c1` (stereo not given), less than 4.82. `COc1ccc(NCC(O)Cn2c3ccc(Cl)cc3c3cc(Cl)ccc32)c(OC)c1` (stereo not given) returned a pEC50 of less than 4.82.

As to `OC(CNCCc1ccccc1)c1ccccc1` (stereo not given), the pEC50 is 5.05. The result for `CCN(CC)CC(O)Cn1c2ccccc2c2ccccc21` (stereo not given) reads 5.34; that for `Oc1ccc(Br)cc1CN1CCN(c2cccc(Cl)c2)CC1`, 6.06. As for `OC(CNC1CCCCC1)COc1ccc(OCc2ccccc2)cc1` (stereo not given), the pEC50 is less than 4.82. The result for `CCCCNCC(O)COc1ccc(Cl)c(C)c1` (stereo not given) reads 5.14; that for `CCOC(=O)c1ccc(NC(=O)/C=C/c2ccccc2Cl)cc1`, less than 4.82. In the case of `O=C(Nc1cc(Cl)ccc1O)c1cnn2c1NC(c1ccc(Br)cc1)CC2C(F)(F)F` (stereo not given) it was less than 4.82.

The molecule `Cc1cc(OCC(O)CNC2CCCC2)ccc1Cl` (stereo not given) registered a pEC50 of 6.61. In the case of `Cc1cccc(NCC(O)Cn2c3ccccc3c3ccccc32)c1C` (stereo not given) it was less than 4.82. In the case of `CC(C)(C)NC(=O)c1cn(C2CCCCC2)cc(C(=O)N2CCC(c3ccccc3)CC2)c1=O` it was less than 4.82; in that of `OC(CNc1ccc(Cl)cc1)Cn1c2ccc(Cl)cc2c2cc(Cl)ccc21` (stereo not given), less than 4.82; in that of `CC(C)(C)NCC(O)Cn1c2ccccc2c2ccccc21` (stereo not given), 5.21. The result for `COc1ccc(C2C(C(=O)OCCOc3ccccc3)=C(C)NC3=C2C(=O)CC(c2ccc(Cl)cc2)C3)cc1` (stereo not given) reads less than 4.82.

`COc1cccc(-c2cc(C(=O)N3CCN(Cc4ccccc4)CC3)c3ccccc3n2)c1` returned a pEC50 of less than 4.82. In the case of `COc1ccc(CN2CCCn3c4c(c5cc(C)ccc53)CCCC42)c(OC)c1` (stereo not given) it was less than 4.82.

`OC(CNCc1cccc(Cl)c1)c1ccccc1` (stereo not given) displayed a pEC50 of less than 4.82. In the case of `COc1c(O)ccc(/C=N/NC(=O)C2CC2(c2ccccc2)c2ccccc2)c1[N+](=O)[O-]` (stereo not given) it was less than 4.82; in that of `CCCCNC(=O)c1cn(C2CCCCC2)cc(C(=O)NC2CCN(Cc3ccccc3)C2)c1=O` (stereo not given), less than 4.82. In the case of `CC(C)N1CCN(Cc2cc(Br)ccc2O)CC1` it was less than 4.82; in that of `CCCn1c(=N)n(CC(O)COc2ccc(Cl)cc2)c2ccccc21` (stereo not given), less than 4.82; in that of `Oc1ccc(Br)cc1CN1CCN(CC2CC3C=CC2C3)CC1` (stereo not given), 5.39. In the case of `Oc1ccc(Br)cc1CN1CCN(C2CCCCCC2)CC1` it was 6.34.
